According to patent US9426983B2, “Agrochemical composition and method for preparing the same” (priority 2007, dated 2016):

Experiment: Tebuconazole concentration in the sprayed composition, determined by chromatograph
Format: physicochemical
Protocol: After the storage period of two weeks, each of the concentrates A to E was diluted with water. 10 liters of spraying compositions were prepared using hard water (CIPAC standard water D, 342 ppm) in 3 different concentrations: 0.5, 1, and 2 times the recommended spraying concentration for each concentrate.
Each diluted composition was sprayed using a personal spraying machine and using one spray nozzle equipped with 200 mesh screen. A sample of each composition was collected leaving the spraying machine after spraying.
Further, every sample of the spray compositon was analyzed in a chromatograph to determine the concentration of tebuconazole in the composition as it would be reaching the locus to be treated. […]

SMILES: CC(C)(C)C(O)(CCc1ccc(Cl)cc1)Cn1cncn1 (stereo not drawn) [Tebuconazole]
- Tebuconazole concentration (0.5% dilution, 0 hr): 2064 ppm
- Tebuconazole concentration (0.5% dilution, 1 hr): 2039 ppm
- Tebuconazole concentration (0.5% dilution, 2 hr): 2009 ppm
- Tebuconazole concentration (0.5% dilution, 3 hr): 1969 ppm
- Tebuconazole concentration (0.5% dilution, 4 hr): 1924 ppm
- Tebuconazole concentration (1.0% dilution, 0 hr): 4150 ppm
- Tebuconazole concentration (1.0% dilution, 1 hr): 4123 ppm
- Tebuconazole concentration (1.0% dilution, 2 hr): 4091 ppm
- Tebuconazole concentration (1.0% dilution, 3 hr): 4052 ppm
- Tebuconazole concentration (1.0% dilution, 4 hr): 4007 ppm
- Tebuconazole concentration (2.0% dilution, 0 hr): 8300 ppm
- Tebuconazole concentration (2.0% dilution, 1 hr): 8272 ppm
- Tebuconazole concentration (2.0% dilution, 2 hr): 8237 ppm
- Tebuconazole concentration (2.0% dilution, 3 hr): 8197 ppm
- Tebuconazole concentration (2.0% dilution, 4 hr): 8152 ppm
